The results in this text go back to ChEMBL document CHEMBL1201862, “PubChem BioAssay data set” (2004).

The target in one assay is Large T antigen (Simian virus 40, UniProt P03070). In kind it is functional, Betapolyomavirus macacae.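 Note: Confirmatory-stage PubChem screen for compounds that inhibit SV40 T antigen.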
Assay [1] addresses T1, Calpain-2 catalytic subunit (Sus scrofa, UniProt P43367).
T1 sequence (P43367 whole entry): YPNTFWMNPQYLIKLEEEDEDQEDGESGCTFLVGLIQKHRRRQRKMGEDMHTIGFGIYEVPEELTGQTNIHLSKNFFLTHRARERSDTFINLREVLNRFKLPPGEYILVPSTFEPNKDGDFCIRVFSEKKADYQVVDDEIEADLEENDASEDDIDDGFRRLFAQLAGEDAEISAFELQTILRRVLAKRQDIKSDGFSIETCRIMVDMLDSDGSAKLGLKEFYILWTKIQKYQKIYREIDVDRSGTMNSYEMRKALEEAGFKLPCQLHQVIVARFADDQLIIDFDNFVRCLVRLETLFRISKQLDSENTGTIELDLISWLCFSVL
Put plainly: m-calpain protease blockers, concentration series – biochemical, fluorogenic peptide substrate, dose response (AID 1420). Type of assay: functional.

A short description of another assay: cells. Type of assay: functional.
The subject of the next assay is H9c2. Put plainly: cells. In kind it is functional, cell-based. Particulars: Rattus norvegicus, H9c2, Myocardium.
The target of another assay is Cytochrome P450 2D6 (Homo sapiens, UniProt P10635).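 Note: CYP2D6 member of a cytochrome P450 panel assay.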
In assay [2] the target is FAD-linked sulfhydryl oxidase ALR (Homo sapiens, UniProt P55789). Put plainly: ALR-catalysed DTT oxidation blockers – biochemical, H2O2 detection, luminescence, cherry-pick, dose response (AID 493248).
In assay [3] the target is T2, Rac GTPase-activating protein 1 (Homo sapiens, UniProt Q9H0H5).
T2 sequence (Q9H0H5 whole entry): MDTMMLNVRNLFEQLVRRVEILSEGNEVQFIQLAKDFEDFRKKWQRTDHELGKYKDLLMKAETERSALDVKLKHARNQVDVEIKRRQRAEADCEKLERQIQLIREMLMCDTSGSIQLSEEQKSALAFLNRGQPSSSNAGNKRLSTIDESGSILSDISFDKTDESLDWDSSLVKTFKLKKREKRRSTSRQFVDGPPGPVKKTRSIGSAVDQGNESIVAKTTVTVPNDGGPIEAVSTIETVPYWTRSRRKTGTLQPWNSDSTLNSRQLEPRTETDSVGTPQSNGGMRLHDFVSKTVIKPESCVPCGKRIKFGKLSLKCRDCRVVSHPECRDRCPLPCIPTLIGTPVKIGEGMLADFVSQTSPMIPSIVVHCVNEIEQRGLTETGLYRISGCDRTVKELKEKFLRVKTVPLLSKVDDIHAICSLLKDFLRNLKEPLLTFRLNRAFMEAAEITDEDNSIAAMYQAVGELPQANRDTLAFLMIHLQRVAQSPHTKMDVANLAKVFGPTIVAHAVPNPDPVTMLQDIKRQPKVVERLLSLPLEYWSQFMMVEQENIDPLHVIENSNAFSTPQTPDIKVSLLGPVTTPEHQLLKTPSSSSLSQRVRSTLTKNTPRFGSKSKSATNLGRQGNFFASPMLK
Put plainly: blockers of MgcRacGAP-driven Rac1 GTP hydrolysis – biochemical, ADP Hunter fluorescence, primary and confirmatory, confirmation (AID 624330). In kind it is functional.

A further assay addresses Genome polyprotein (dengue virus type 2, UniProt P29990). Put plainly: flavivirus cap methylation enzyme inhibition – biochemical, confirmation dose response, primary screen (AID 588689). In kind it is functional.
A short description of assay [4]: Trypanosoma cruzi growth suppression in host cells – NIH3T3 host cells, beta-gal luminescence, confirmation (AID 2044).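 Note: intracellular parasites grown in NIH/3T3 mouse fibroblasts as host cells; luminescent beta-galactosidase reporter signal from transgenic T. cruzi replicating inside host cells; inhibitors lower the luminescence signal.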 Type of assay: functional, cell-based.
A short description of assay [5]: NIH3T3 cell viability loss – ATP luminescence, mouse fibroblasts, counter-screen, dose response (AID 2010).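 Note: cells exposed to compound for about 90 hours before reading.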 Type of assay: functional, cell-based.
The target in assay [6] is Induced myeloid leukemia cell differentiation protein Mcl-1 (Homo sapiens, UniProt Q07820). Type of assay: functional.

The source made the active and inactive calls.

Large T antigen, sequence (P03070 whole entry): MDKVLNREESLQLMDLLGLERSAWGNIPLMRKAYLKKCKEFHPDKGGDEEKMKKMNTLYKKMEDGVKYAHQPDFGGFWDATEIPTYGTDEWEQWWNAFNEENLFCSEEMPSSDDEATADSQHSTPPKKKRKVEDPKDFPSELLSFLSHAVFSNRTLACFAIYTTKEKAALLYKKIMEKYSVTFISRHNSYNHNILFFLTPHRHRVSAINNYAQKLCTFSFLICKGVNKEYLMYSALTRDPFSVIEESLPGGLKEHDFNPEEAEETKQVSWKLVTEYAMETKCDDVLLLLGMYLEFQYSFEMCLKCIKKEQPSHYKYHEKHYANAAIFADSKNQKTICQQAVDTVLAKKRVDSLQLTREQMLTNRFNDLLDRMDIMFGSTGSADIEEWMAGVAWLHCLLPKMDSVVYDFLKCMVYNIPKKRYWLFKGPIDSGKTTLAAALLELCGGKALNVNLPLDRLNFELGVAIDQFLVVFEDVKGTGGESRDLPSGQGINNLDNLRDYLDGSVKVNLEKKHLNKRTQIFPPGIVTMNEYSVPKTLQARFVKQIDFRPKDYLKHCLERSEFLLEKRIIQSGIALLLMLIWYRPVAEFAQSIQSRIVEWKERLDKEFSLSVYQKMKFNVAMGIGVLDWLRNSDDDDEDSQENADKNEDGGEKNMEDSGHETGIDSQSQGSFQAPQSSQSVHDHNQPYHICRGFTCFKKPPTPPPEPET
Genome polyprotein, sequence (P29990 2492-3391 limits assumed): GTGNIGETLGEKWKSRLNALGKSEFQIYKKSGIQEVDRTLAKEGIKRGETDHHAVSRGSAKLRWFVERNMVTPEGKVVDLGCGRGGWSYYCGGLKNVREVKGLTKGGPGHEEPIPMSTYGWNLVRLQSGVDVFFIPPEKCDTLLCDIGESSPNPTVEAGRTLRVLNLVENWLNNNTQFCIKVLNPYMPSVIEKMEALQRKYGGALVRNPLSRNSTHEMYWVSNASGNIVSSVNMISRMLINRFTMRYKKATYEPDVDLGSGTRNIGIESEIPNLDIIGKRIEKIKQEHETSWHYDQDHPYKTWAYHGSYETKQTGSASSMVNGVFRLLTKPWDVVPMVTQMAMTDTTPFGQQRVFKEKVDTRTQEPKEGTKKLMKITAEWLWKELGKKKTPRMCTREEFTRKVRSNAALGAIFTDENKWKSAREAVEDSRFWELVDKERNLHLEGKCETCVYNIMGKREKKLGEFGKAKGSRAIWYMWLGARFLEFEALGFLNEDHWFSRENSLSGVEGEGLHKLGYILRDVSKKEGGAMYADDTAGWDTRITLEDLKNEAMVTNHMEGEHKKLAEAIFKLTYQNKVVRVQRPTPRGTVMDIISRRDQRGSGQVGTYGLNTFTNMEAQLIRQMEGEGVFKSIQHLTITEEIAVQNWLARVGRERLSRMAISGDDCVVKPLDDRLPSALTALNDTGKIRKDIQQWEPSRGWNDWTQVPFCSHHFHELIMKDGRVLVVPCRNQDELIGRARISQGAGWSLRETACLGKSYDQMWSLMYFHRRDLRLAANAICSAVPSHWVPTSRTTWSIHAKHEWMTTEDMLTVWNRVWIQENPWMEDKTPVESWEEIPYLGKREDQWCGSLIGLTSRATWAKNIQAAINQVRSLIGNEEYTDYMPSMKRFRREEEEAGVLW
FAD-linked sulfhydryl oxidase ALR, sequence (P55789 whole entry): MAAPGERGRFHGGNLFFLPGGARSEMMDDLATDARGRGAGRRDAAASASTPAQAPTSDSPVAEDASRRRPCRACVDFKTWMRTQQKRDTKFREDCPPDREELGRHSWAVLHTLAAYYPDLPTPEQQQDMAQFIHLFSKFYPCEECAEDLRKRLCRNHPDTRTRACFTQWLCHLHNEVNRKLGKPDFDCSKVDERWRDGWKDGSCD
Induced myeloid leukemia cell differentiation protein Mcl-1, sequence (Q07820 whole entry): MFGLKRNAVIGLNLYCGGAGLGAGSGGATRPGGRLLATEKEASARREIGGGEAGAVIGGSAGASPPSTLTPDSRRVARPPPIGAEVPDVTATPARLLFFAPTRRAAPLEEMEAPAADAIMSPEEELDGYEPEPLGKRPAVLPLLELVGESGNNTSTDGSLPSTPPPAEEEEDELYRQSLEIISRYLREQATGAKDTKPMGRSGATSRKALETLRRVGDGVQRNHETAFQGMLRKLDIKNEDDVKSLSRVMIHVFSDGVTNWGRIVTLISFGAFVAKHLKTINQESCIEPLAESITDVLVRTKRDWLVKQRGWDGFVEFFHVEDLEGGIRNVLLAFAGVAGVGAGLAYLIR
Cytochrome P450 2D6, sequence (P10635 whole entry): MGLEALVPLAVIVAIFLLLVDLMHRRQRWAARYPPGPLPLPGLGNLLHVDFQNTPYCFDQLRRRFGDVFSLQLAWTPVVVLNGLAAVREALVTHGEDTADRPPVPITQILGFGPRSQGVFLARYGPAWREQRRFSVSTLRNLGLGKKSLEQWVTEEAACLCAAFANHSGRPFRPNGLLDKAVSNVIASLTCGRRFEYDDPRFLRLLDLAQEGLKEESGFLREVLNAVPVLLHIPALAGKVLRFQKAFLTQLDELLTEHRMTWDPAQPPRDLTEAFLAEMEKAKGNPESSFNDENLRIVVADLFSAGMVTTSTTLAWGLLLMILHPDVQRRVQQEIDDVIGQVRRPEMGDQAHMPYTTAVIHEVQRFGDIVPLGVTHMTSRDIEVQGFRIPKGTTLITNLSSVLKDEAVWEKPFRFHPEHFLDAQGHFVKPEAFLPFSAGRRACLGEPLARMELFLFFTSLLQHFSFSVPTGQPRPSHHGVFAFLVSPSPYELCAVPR

`COc1cc(/C=N/Nc2nc3ccccc3nc2O)ccc1O`: on Large T antigen, the IC50 is 18 µM (active).

Regarding `O=C(Nc1cccc(C(=O)O)c1)/C(=C\C=C\c1ccccc1)NC(=O)c1ccccc1`, the IC50 in [1] was 13.6 µM (not active).

For the molecule `COC(=O)COc1ccc2cc(-c3ccc(OC)cc3)c(=O)oc2c1`, the IC50 in the assay “cells” was 1.12 µM (active).

Regarding `O=C(CC1SC(=O)N(c2ccccc2)C1=O)Nc1cccc2ccccc12` (centres undefined), the IC50 at Large T antigen is 70.4 µM (active).

In the case of `CNC(=O)c1ccc(-c2sc3nc(N4CCOCC4)c4c(c3c2N)CC(C)(C)OC4)o1`, the IC50 was 2.6 µM (active) at Large T antigen and > 79 µM (inactive) in the assay with H9c2. Also, the half-maximal activity concentration (AC50) on Cytochrome P450 2D6 was 15.8 µM (inconclusive).

Consider `O=[N+]([O-])c1c(O)nc(/C=C\c2ccc(O)cc2)nc1O`, for which the AC50 in [2] was 4.4 µM (active). In assay [3], the IC50 was 50.6 µM (active).

For `Cc1cc(C)c(NC(=O)Cn2cc3c(n2)CCCC3)c(C)c1`, the half-maximal inhibitory concentration (IC50) in assay [1] was 20.5 µM (not active).

Consider `CCCCCc1c2c(cc(O)c1C(=O)O)OC(=O)c1cc(C(=O)CCCC)c(OC)cc1O2`, for which, on Genome polyprotein, the IC50 is 39 µM (active).

`Cn1c(=O)n(CCc2ccccc2)c(=O)c2c1nc1n2CCCN1Cc1ccccc1`: in the assay with H9c2, the IC50 was > 79 µM (inactive).

In the case of `COc1ccccc1N1CCN(C(=O)c2ccc(CSc3ccccc3)cc2)CC1`, the IC50 in assay [1] was 8.99 µM (not active).

For `CC1CCN(C(=O)COC(=O)c2cc3ccccc3cc2O)CC1`, the IC50 in “cells” was 0.9 µM (active).

As for `Cc1ccc(NC(=O)CN(C)C(=O)CCCN2C(=O)c3ccccc3C2=O)cc1`, the IC50 in assay [1] was 10.3 µM (not active).

In the case of `COc1ccc(C(CC(=O)N2CCN(c3ccccc3)CC2)c2c(OC)cc(OC)c3ccc(=O)oc23)cc1` (centres undefined), in the assay on H9c2, the 50% inhibitory concentration (IC50) was 11.4 µM (active).

Consider `CCOC(=O)N1CCC(N2CCCC(C(=O)c3ccc4cc(OC)ccc4c3)C2)CC1` (centres undefined), for which the EC50 in [4] was 1.12 µM (active); in [5], 56.6 µM (active). The concentration for half-maximal inhibition (IC50) in the assay “cells” is 21.9 µM (active).

`COC(=O)c1ccc(COC(=O)c2ccccn2)cc1`: the concentration for half-maximal inhibition (IC50) in the assay “cells” is 26.6 µM (active).

With `O=C(CCCn1c(SCC(=O)c2ccc(O)c(O)c2)nc2ccccc2c1=O)NCC1CCCO1` (centres undefined), the IC50 with H9c2 is 17.4 µM (active).

As to `O=C1NC(Cc2ccc(O)cc2)c2nc3ccc(F)cc3c(=O)n2-c2cc3ccccc3cc21` (centres undefined), the IC50 with H9c2 is > 79 µM (inactive).

Consider `C/C(=N\Nc1cccc(C(=O)O)c1)c1ccc2c(c1)Nc1ccccc1S2`, for which the IC50 was 0.431 µM (active) in assay [6] and > 100 µM (active) on Genome polyprotein.

Regarding `CCOC(=O)c1cnc(SC)nc1Oc1cccc(NC(=O)c2cccc(Cl)c2Cl)c1`, the IC50 in the assay on H9c2 is > 79 µM (inactive).

For `CN(C)c1ccc(NC(=O)CN2CCN(CC(=O)Nc3ccc(F)cc3)CC2)cc1`, on Large T antigen, the IC50 is 17.2 µM (active).

Consider `CCOC(=O)c1ccc(S(=O)(=O)Nc2nc3cc(S(=O)(=O)NC4=NCCCCC4)ccc3s2)cc1`, for which the IC50 at Large T antigen was 33.4 µM (active); in [3], 107 µM (active).

Regarding `COc1ccc(CCNC(=O)c2cc(C(=O)c3cc(C)ccc3O)cn(CCc3ccc(OC)cc3)c2=O)cc1`, in the assay with H9c2, the IC50 is > 79 µM (inactive).
